# According to patent US20120196854A1, “PHARMACEUTICAL COMPOSITION COMPRISING AROMATIC HETEROCYCLIC COMPOUND” (Kyowa Hakko Kirin Co., Ltd., priority 2009, published 2012):
# Legend:
# Type in all cases: biochemical
# human H-PGDS = biological target: T1, human H-PGDS (Homo sapiens, UniProt O60760); experiment: H-PGDS inhibitory activity (Prostaglandin D Synthase Inhibitor Screening Assay Kit); settings: at a concentration of 1 μmol/L; read-out: H-PGDS inhibitory rate
# T1 construct: purchased Cayman Chemical 10006593
# Method: The H-PGDS inhibitory activity of Compound (I) was calculated according to the following protocol attached to Prostaglandin D Synthase Inhibitor Screening Assay Kit (Cat. No. 10006595, Cayman Chemical, Ann Arbor, Mich., USA).
# (§1) First, to a 96-well round-bottom plate (Cat. No. 3882-096, Asahi Techno Glass, Chiba), 60 μL/well of an enzyme assay buffer (0.1 mol/L Tris-HCl, pH 8.0), 10 μL/well of a human H-PGDS [Cat. No. 10006593 (human), Cayman Chemical, Ann Arbor, Mich., USA] at a final concentration of 0.125 μg/mL, 10 μL/well of reduced glutathione at a final concentration of 1 mmol/L, and 10 μL/well of Compound (I) diluted with the enzyme assay buffer were added and lightly mixed. The plate was allowed to stand at room temperature for 10 minutes, and then 10 μL/well of prostaglandin H2(PGH2) (Cat. No. 17020, Cayman Chemical) at a final concentration of 50 μmol/L was added thereto to start enzyme reaction. The reaction was allowed to proceed with mixing by a plate mixer for 1 minute. After the enzyme reaction, 10 μL/well of a 4 mg/mL FeCl2-HCl solution prepared by dissolving FeCl2 in 1 mol/L hydrochloric acid was added to stop the reaction and reduce PGH2 simultaneously. The enzyme reaction solution (100 μL/well) was transferred to a 96-well UV-Star half area plate (Cat. No. 675801, Greiner, Frickenhausen, Germany), and measured for absorbance at 232 nm using a microplate reader Power Wave (BioTek Instrument Inc., Winooski, Vt., USA).
# The H-PGDS inhibitory activity (inhibitory rate) of Compound (I) was calculated by the following formula.
# The H-PGDS inhibitory activity of Compound 133 was calculated according to the following protocol attached to Prostaglandin D Synthase Inhibitor Screening Assay Kit (Cat. No. 10006595, Cayman Chemical, Ann Arbor, Mich., USA).
# as §1, with “133” for “(I)”
# The H-PGDS inhibitory activity (inhibitory rate) of Compound 133 was calculated according to the method in Test Example 1.
# cyclooxygenase-1 (COX-1) = cyclooxygenase-1 (COX-1) (Homo sapiens, UniProt P23219); experiment: Inhibition of COX-1 enzyme activity; settings: at a concentration of 10 μmol/L; read-out: inhibitory rate, COX-1
# cyclooxygenase-2 (COX-2) = biological target: T2, cyclooxygenase-2 (COX-2) (Homo sapiens, UniProt P35354); experiment: Inhibition of COX-2 enzyme activity; settings: at a concentration of 10 μmol/L; read-out: inhibitory rate, COX-2
# T2 sequence (P35354 18-604): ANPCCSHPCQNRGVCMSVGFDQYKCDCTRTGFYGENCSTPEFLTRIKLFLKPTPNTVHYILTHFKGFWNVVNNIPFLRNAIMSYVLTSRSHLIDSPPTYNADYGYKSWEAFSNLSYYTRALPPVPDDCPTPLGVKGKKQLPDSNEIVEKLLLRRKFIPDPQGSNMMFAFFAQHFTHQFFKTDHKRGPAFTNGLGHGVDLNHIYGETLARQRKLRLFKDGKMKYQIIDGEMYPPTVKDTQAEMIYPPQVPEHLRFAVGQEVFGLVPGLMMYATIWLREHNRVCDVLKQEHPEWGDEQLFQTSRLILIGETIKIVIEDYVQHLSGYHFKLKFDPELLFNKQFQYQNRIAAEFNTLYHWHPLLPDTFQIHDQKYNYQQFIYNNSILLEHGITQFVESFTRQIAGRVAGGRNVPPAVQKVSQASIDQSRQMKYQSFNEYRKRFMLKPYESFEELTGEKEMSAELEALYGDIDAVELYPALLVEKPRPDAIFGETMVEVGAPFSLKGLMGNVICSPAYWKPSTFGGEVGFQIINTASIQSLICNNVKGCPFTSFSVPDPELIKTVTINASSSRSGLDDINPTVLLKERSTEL
# T1 sequence (O60760 whole entry): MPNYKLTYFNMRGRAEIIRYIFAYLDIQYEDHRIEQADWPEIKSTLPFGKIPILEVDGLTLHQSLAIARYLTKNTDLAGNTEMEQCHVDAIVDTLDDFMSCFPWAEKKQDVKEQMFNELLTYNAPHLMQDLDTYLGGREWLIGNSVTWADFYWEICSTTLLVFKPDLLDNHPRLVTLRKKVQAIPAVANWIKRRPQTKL
# Chain of cyclooxygenase-1 (COX-1) (P23219 24-599, species assumed): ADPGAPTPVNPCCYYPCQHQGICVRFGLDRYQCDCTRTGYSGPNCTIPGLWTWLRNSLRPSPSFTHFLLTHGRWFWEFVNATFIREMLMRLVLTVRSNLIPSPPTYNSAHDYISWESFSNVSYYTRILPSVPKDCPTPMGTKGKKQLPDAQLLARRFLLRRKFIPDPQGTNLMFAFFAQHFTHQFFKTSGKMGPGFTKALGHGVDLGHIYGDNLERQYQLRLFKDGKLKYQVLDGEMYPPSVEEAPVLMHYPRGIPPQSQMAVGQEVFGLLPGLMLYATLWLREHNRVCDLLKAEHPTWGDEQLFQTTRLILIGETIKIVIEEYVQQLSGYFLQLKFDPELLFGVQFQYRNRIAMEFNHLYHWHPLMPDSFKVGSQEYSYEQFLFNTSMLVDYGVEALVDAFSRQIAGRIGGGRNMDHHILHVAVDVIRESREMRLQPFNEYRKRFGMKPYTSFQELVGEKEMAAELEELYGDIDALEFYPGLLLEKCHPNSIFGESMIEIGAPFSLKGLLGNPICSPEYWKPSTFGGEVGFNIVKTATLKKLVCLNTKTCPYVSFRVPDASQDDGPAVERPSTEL
smiles,measurement,setting,value
"O=C(O)c1cc(-c2ccco2)nc2ccc3nn(-c4ccccc4)nc3c12 [Compound 133, 7-(furan-2-yl)-2-phenyl-2H-[1,2,3]triazolo[4,5-f]quinoline-9-carboxylic acid]",inhibition at 1 µM,human H-PGDS,73%
same,inhibition at 10 µM,cyclooxygenase-1 (COX-1),≤ 20%
same,inhibition at 10 µM,cyclooxygenase-2 (COX-2),≤ 20%
